This is an account of results in ChEMBL document CHEMBL1153182, “Novel enoyl-ACP reductase (FabI) potential inhibitors of Escherichia coli from Chinese medicine monomers” (Bioorg Med Chem Lett, 2010).

Converted amounts (≈) assume the structure as drawn. The source made the active and inactive calls. The rule behind the calls is not given here. Bounds are passed on as bounds.

Test [1] deals with T1, Enoyl-[acyl-carrier-protein] reductase [NADH] FabI (Escherichia coli K-12) (UniProt P0AEK4).
T1 sequence (whole entry): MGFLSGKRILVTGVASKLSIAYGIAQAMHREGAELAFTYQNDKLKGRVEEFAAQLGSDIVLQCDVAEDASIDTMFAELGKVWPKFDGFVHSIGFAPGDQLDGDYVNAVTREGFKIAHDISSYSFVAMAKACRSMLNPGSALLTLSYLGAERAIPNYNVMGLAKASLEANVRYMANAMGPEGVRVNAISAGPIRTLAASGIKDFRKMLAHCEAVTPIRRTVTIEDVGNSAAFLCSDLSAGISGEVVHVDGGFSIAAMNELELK
Put plainly: Inhibition of Escherichia coli MG1655 enoyl-ACP reductase overexpressed in Escherichia coli M15 assessed as oxidation of NADH to NAD+ at 5 uM after 5 mins.

The test system of test [2] is Escherichia coli. Description: Antibacterial activity against Escherichia coli MG1655. It is filed as functional.
In test [3] the test system is Escherichia coli. Description: Antibacterial activity against fabI-overexpressing Escherichia coli M15. It is filed as functional.
Test [4] deals with Escherichia coli. Put plainly: Antibacterial activity against Escherichia coli M15 containing pQE30 expression vector. The test is classed as functional.
In test [5] the test system is Escherichia coli. Description: Antibacterial activity against Escherichia coli M15. It is filed as functional.
The target of test [6] is T1, Enoyl-[acyl-carrier-protein] reductase [NADH] FabI (Escherichia coli K-12). Description: Uncompetitive inhibition of Escherichia coli MG1655 enoyl-ACP reductase overexpressed in Escherichia coli M15 assessed as oxidation of NADH to NAD+ after 5 mins by Lineweaver-Burke plot.
Test [7] has as its target T2, Enoyl-[acyl-carrier-protein] reductase [NADH] FabI (Escherichia coli K-12, UniProt P0AEK4).
T2 sequence (P0AEK4 whole entry): T1 sequence (whole entry)
Put plainly: Inhibition of Escherichia coli MG1655 enoyl-ACP reductase overexpressed in Escherichia coli M15 assessed as oxidation of NADH to NAD+ after 5 mins.

Test [8] concerns Escherichia coli. Description: Ratio of MIC90 for fabI-overexpressing Escherichia coli M15 to MIC90 for Escherichia coli M15. The test is classed as functional.
The test system of test [9] is Escherichia coli. Description: Ratio of MIC90 for fabI-overexpressing Escherichia coli M15 to MIC90 for Escherichia coli M15 containing pQE30 expression vector. It is filed as functional.

Take `CC(C)=CCOc1c2occc2cc2ccc(=O)oc12`: in test [1], the outcome was Active.
Still for that read-out and setting: next, `OC[C@H]1O[C@@H](Oc2cc(O)cc(/C=C/c3ccc(O)cc3)c2)[C@H](O)[C@@H](O)[C@@H]1O`: “Active”.
As to `O=C(N[C@H](CO)[C@H](O)c1ccc([N+](=O)[O-])cc1)C(Cl)Cl` [CHLORAMPHENICOL], the MIC90 in the test on Escherichia coli [2], with Escherichia coli [3], in the test on Escherichia coli [4] and in the test with Escherichia coli [5] was 8 µg/mL (≈ 24.8 µM) each time.
With `COc1cc(/C=C/C(=O)CC(=O)/C=C/c2ccc(O)c(OC)c2)ccc1O` [CURCUMIN], the MIC90 was 73.7 µg/mL (≈ 200 µM) against Escherichia coli [2], greater than 500 µg/mL against Escherichia coli [3], 73.7 µg/mL (≈ 200 µM) against Escherichia coli [4] and 73.7 µg/mL (≈ 200 µM) against Escherichia coli [5]. The outcome in [6] was Active. For the same compound, in test [7], the Ki came out at 15 µM. Also, the Ratio in the test with Escherichia coli [8] and with Escherichia coli [9] was 7 throughout.
In the case of `CC[C@H]1OC(=O)[C@H](C)[C@@H](O[C@H]2C[C@@](C)(OC)[C@@H](O)[C@H](C)O2)[C@H](C)[C@@H](O[C@@H]2O[C@H](C)C[C@H](N(C)C)[C@H]2O)[C@](C)(O)C[C@@H](C)C(=O)[C@H](C)[C@@H](O)[C@]1(C)O` [ERYTHROMYCIN], the MIC90 with Escherichia coli [2], against Escherichia coli [3], against Escherichia coli [4] and against Escherichia coli [5] was 16 µg/mL (≈ 21.8 µM) each time.
With `O=c1c(-c2ccc(O)cc2)coc2cc(O)cc(O)c12` [GENISTEIN], the MIC90 in the test on Escherichia coli [2] was 378 µg/mL (≈ 1400 µM); with Escherichia coli [3], greater than 500 µg/mL; in the test on Escherichia coli [4], 378 µg/mL (≈ 1400 µM); with Escherichia coli [5], 378 µg/mL (≈ 1400 µM). Also, the result in test [1] was Active.
With `O=c1cc(-c2ccc(O)c(O)c2)oc2cc(O)cc(O)c12` [LUTEOLIN], the result in [6] was Active. The Ki in test [7] came out at 7.05 µM.
As for `CO[C@H]1/C=C/O[C@@]2(C)Oc3c(C)c(O)c4c(O)c(c(/C=N/N5CCN(C)CC5)c(O)c4c3C2=O)NC(=O)/C(C)=C\C=C\[C@H](C)[C@H](O)[C@@H](C)[C@@H](O)[C@@H](C)[C@H](OC(C)=O)[C@@H]1C` [RIFAMPIN], the MIC90 against Escherichia coli [2], with Escherichia coli [3], against Escherichia coli [4] and with Escherichia coli [5] was 128 µg/mL (≈ 156 µM) in each case.
`CN[C@@H]1[C@H](O)[C@H](NC)[C@H]2O[C@@]3(O)C(=O)C[C@@H](C)O[C@H]3O[C@@H]2[C@H]1O` [SPECTINOMYCIN]: the MIC90 in the test with Escherichia coli [2], in the test with Escherichia coli [3], against Escherichia coli [4] and with Escherichia coli [5] was 20 µg/mL (≈ 60.2 µM) throughout.
With `Oc1cc(Cl)ccc1Oc1ccc(Cl)cc1Cl` [TRICLOSAN], the MIC90 against Escherichia coli [2] was 2.9 µg/mL (≈ 10 µM); with Escherichia coli [3], greater than 500 µg/mL; with Escherichia coli [4], 2.9 µg/mL (≈ 10 µM); against Escherichia coli [5], 2.9 µg/mL (≈ 10 µM).
Turning to GENTAMICIN, the MIC90 in the test with Escherichia coli [2], against Escherichia coli [3], in the test with Escherichia coli [4] and with Escherichia coli [5] was 8 µg/mL in each case.
